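Five compound concentrations were applied to cells in 96-well plates for 48 hours; endpoints were derived by simple linear interpolation of the resulting dose-response curve. GI50 is the concentration that inhibits growth by half. At the TGI there is no net growth.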
Tests used:
Assay in all cases: NCI anticancer screen, dose series, 48 h
A549 NSCLC = system: A549 NSCLC
MCF7 breast = system: MCF7 breast
UO-31 renal = system: UO-31 renal
U251 CNS = system: U251 CNS
MDA-MB-435 = system: MDA-MB-435
NCI-H226 lung = system: NCI-H226 lung
DU-145 prostate = system: DU-145 prostate
A498 renal = system: A498 renal
OVCAR-8 ovarian = system: OVCAR-8 ovarian
M14 melanoma = system: M14 melanoma
SF-268 CNS = system: SF-268 CNS
HCT-15 colon = system: HCT-15 colon
SK-MEL-28 melanoma = system: SK-MEL-28 melanoma
COLO 205 colon = system: COLO 205 colon
HCC-2998 colon = system: HCC-2998 colon
OVCAR-3 ovarian = system: OVCAR-3 ovarian
BT-549 breast = system: BT-549 breast
NCI-H460 lung = system: NCI-H460 lung
786-0 renal = system: 786-0 renal
NCI-H522 lung = system: NCI-H522 lung
ACHN renal = system: ACHN renal
SF-539 CNS = system: SF-539 CNS
OVCAR-4 ovarian = system: OVCAR-4 ovarian
KM12 colon = system: KM12 colon
HOP-62 NSCLC = system: HOP-62 NSCLC
NCI/ADR-RES ovarian = system: NCI/ADR-RES ovarian
SK-MEL-5 melanoma = system: SK-MEL-5 melanoma
RPMI-8226 leukemia = system: RPMI-8226 leukemia
TK-10 renal = system: TK-10 renal
HCT-116 colon = system: HCT-116 colon
MOLT-4 leukemia = system: MOLT-4 leukemia
RXF 393 renal = system: RXF 393 renal
SNB-75 CNS = system: SNB-75 CNS
SK-MEL-2 melanoma = system: SK-MEL-2 melanoma
SW-620 colon = system: SW-620 colon
HOP-92 NSCLC = system: HOP-92 NSCLC
IGROV1 ovarian = system: IGROV1 ovarian
NCI-H23 lung = system: NCI-H23 lung
T-47D breast = system: T-47D breast
LOX IMVI melanoma = system: LOX IMVI melanoma
HL-60(TB) leukemia = system: HL-60(TB) leukemia
MDA-MB-231 breast = system: MDA-MB-231 breast
CCRF-CEM leukemia = system: CCRF-CEM leukemia
CAKI-1 renal = system: CAKI-1 renal
SK-OV-3 ovarian = system: SK-OV-3 ovarian
SN12C renal = system: SN12C renal
UACC-257 melanoma = system: UACC-257 melanoma
UACC-62 melanoma = system: UACC-62 melanoma
HT29 colon = system: HT29 colon
HS 578T breast = system: HS 578T breast
OVCAR-5 ovarian = system: OVCAR-5 ovarian
SR leukemia = system: SR leukemia
K-562 leukemia = system: K-562 leukemia
PC-3 prostate = system: PC-3 prostate

O=c1[nH]c(-c2ccccn2)nc2sc3c(c12)CCCCCC3
GI50 (A549 NSCLC): 2.57 µM | TGI (A549 NSCLC): > 100 µM | GI50 (MCF7 breast): 2.47 µM | TGI (MCF7 breast): > 100 µM | GI50 (UO-31 renal): 5.87 µM | TGI (UO-31 renal): > 100 µM | GI50 (U251 CNS): 2.16 µM | TGI (U251 CNS): > 100 µM | GI50 (MDA-MB-435): > 100 µM | TGI (MDA-MB-435): > 100 µM | GI50 (NCI-H226 lung): > 100 µM | TGI (NCI-H226 lung): > 100 µM | GI50 (DU-145 prostate): 6.73 µM | TGI (DU-145 prostate): > 100 µM | GI50 (A498 renal): 1.31 µM | TGI (A498 renal): > 100 µM | GI50 (OVCAR-8 ovarian): 4.33 µM | TGI (OVCAR-8 ovarian): > 100 µM | GI50 (M14 melanoma): 4.09 µM | TGI (M14 melanoma): > 100 µM | GI50 (SF-268 CNS): 8.66 µM | TGI (SF-268 CNS): > 100 µM | GI50 (HCT-15 colon): 2.35 µM | TGI (HCT-15 colon): > 100 µM | GI50 (SK-MEL-28 melanoma): 6.01 µM | TGI (SK-MEL-28 melanoma): > 100 µM | GI50 (COLO 205 colon): 5.85 µM | TGI (COLO 205 colon): > 100 µM | GI50 (HCC-2998 colon): 26.2 µM | TGI (HCC-2998 colon): > 100 µM | GI50 (OVCAR-3 ovarian): 8.51 µM | TGI (OVCAR-3 ovarian): > 100 µM | GI50 (BT-549 breast): 5.62 µM | TGI (BT-549 breast): > 100 µM | GI50 (NCI-H460 lung): 1.91 µM | TGI (NCI-H460 lung): > 100 µM | GI50 (786-0 renal): 5.65 µM | TGI (786-0 renal): > 100 µM | GI50 (NCI-H522 lung): > 100 µM | TGI (NCI-H522 lung): > 100 µM | GI50 (ACHN renal): 5.19 µM | TGI (ACHN renal): > 100 µM | GI50 (SF-539 CNS): 7.84 µM | TGI (SF-539 CNS): > 100 µM | GI50 (OVCAR-4 ovarian): 5.88 µM | TGI (OVCAR-4 ovarian): > 100 µM | GI50 (KM12 colon): 4.1 µM | TGI (KM12 colon): > 100 µM | GI50 (HOP-62 NSCLC): 6.24 µM | TGI (HOP-62 NSCLC): > 100 µM | GI50 (NCI/ADR-RES ovarian): 0.961 µM | TGI (NCI/ADR-RES ovarian): > 100 µM | GI50 (SK-MEL-5 melanoma): 2.92 µM | TGI (SK-MEL-5 melanoma): > 100 µM | GI50 (RPMI-8226 leukemia): 3.63 µM | TGI (RPMI-8226 leukemia): > 100 µM | GI50 (TK-10 renal): > 100 µM | TGI (TK-10 renal): > 100 µM | GI50 (HCT-116 colon): 1.37 µM | TGI (HCT-116 colon): > 100 µM | GI50 (MOLT-4 leukemia): 2.41 µM | TGI (MOLT-4 leukemia): > 100 µM | GI50 (RXF 393 renal): 7.42 µM | TGI (RXF 393 renal): > 100 µM | GI50 (SNB-75 CNS): 85.1 µM | TGI (SNB-75 CNS): > 100 µM | GI50 (SK-MEL-2 melanoma): > 100 µM | TGI (SK-MEL-2 melanoma): > 100 µM | GI50 (SW-620 colon): 4.85 µM | TGI (SW-620 colon): > 100 µM | GI50 (HOP-92 NSCLC): 3.9 µM | TGI (HOP-92 NSCLC): > 100 µM | GI50 (IGROV1 ovarian): 3.98 µM | TGI (IGROV1 ovarian): > 100 µM | GI50 (NCI-H23 lung): 11 µM | TGI (NCI-H23 lung): > 100 µM | GI50 (T-47D breast): 5.54 µM | TGI (T-47D breast): > 100 µM | GI50 (LOX IMVI melanoma): 1.09 µM | TGI (LOX IMVI melanoma): > 100 µM | GI50 (HL-60(TB) leukemia): 3.39 µM | TGI (HL-60(TB) leukemia): > 100 µM | GI50 (MDA-MB-231 breast): 8.76 µM | TGI (MDA-MB-231 breast): > 100 µM | GI50 (CCRF-CEM leukemia): 0.905 µM | TGI (CCRF-CEM leukemia): > 100 µM | GI50 (CAKI-1 renal): 3.29 µM | TGI (CAKI-1 renal): > 100 µM | GI50 (SK-OV-3 ovarian): > 100 µM | TGI (SK-OV-3 ovarian): > 100 µM | GI50 (SN12C renal): 6.29 µM | TGI (SN12C renal): > 100 µM | GI50 (UACC-257 melanoma): > 100 µM | TGI (UACC-257 melanoma): > 100 µM | GI50 (UACC-62 melanoma): 5.51 µM | TGI (UACC-62 melanoma): > 100 µM | GI50 (HT29 colon): 7.69 µM | TGI (HT29 colon): > 100 µM | GI50 (HS 578T breast): 6.45 µM | TGI (HS 578T breast): > 100 µM | GI50 (OVCAR-5 ovarian): 90.9 µM | TGI (OVCAR-5 ovarian): > 100 µM | GI50 (SR leukemia): 0.864 µM | TGI (SR leukemia): > 100 µM | GI50 (K-562 leukemia): 0.99 µM | TGI (K-562 leukemia): > 100 µM | GI50 (PC-3 prostate): 4.05 µM | TGI (PC-3 prostate): > 100 µM
